Source: patent US20260374773A1, “MULTI-CYCLIC IRAK AND FLT3 INHIBITING COMPOUNDS AND USES THEREOF” (CHILDREN'S HOSPITAL MEDICAL CENTER, priority 2022, published 2026)

Columns and labels:
NF-κB [1] = assay: NF-κB SEAP reporter assay in THP-1-Blue NF-κB cells, Pam3CSK4 stimulated; format: cell-based; details: THP-1-Blue cells, 1 ng/ml Pam3CSK4, 24 h, read-out: NF-κB Pam3SCK4 IC50
Method: (§1) THP-1-Blue NF-κB cells (InvivoGen) carrying a stable integrated NF-κB-inducible secreted embryonic alkaline phosphatase (SEAP) reporter construct were plated at a concentration of 1×10^5 cells per well. The cells were stimulated with Pam3CSK4 (1 ng/ml) or hIL1B (1 ng/ml). After 10-20 minutes, the cells were then treated with vehicle (DMSO) or serial dilutions of the test compounds (10 doses tested for each test compound, with a […] starting at 1 μM or 3 μM) with a final volume of 200 μL for 24 hours at 37 °C. After 24 hours, the cells were centrifuged and 20 μL supernatant was incubated with 180 μL QUANTI-Blue reagent at 37 °C for 30-60 minutes. The levels of NF-κB-induced was measured in a microplate reader at 620 nm.
as §1, with “1 mM” for “1 μM”, “3 mM)” for “3 μM)”, “200 mL” for “200 μL”, “20 mL” for “20 μL”, “180 mL” for “180 μL”, “NF-κB-induced gene expression were” for “NF-κB-induced was”

NF-κB [2] = assay: NF-κB SEAP reporter assay in THP-1-Blue NF-κB cells, hIL1B stimulated; format: cell-based; details: THP-1-Blue cells, 1 ng/ml hIL1B, 24 h, read-out: NF-κB IL1B IC50
Method: as §1
as §1, with “1 mM” for “1 μM”, “3 mM)” for “3 μM)”, “200 mL” for “200 μL”, “20 mL” for “20 μL”, “180 mL” for “180 μL”, “NF-κB-induced gene expression were” for “NF-κB-induced was”

| IC50 (NF-κB [1]; Table 15) | IC50 (NF-κB [2]; Table 15) | IC50 (NF-κB [1]; Table 21) | IC50 (NF-κB [2]; Table 21) | Structure (SMILES) |
| --- | --- | --- | --- | --- |
| 42 nM | 41 nM | – | – | COc1cn2ncc(-c3nc(N[C@H]4CNC[C@@H]4F)c(F)cc3F)c2nc1C(C)(C)O [Compound 12, 2-(3-(3,5-difluoro-6-(((3S,4S)-4-fluoropyrrolidin-3-yl)amino)pyridin-2-yl)-6-methoxypyrazolo[1,5-a]pyrimidin-5-yl)propan-2-ol] |
| 7 nM | 19 nM | – | – | COc1cn2ncc(-c3nc(N[C@H]4CNCC[C@@H]4F)c(F)cc3F)c2nc1C1CC1 [Compound 22, 6-(5-cyclopropyl-6-methoxypyrazolo[1,5-a]pyrimidin-3-yl)-3,5-difluoro-N-((3S,4S)-4-fluoropiperidin-3-yl)pyridin-2-amine] |
| 99 nM | 73 nM | – | – | COc1cn2ncc(-c3nc(N[C@H]4CNCC[C@@H]4F)c(F)cc3F)c2nc1C(C)(C)O [Compound 13, 2-(3-(3,5-difluoro-6-(((3S,4S)-4-fluoropiperidin-3-yl)amino)pyridin-2-yl)-6-methoxypyrazolo[1,5-a]pyrimidin-5-yl)propan-2-ol] |
| – | – | 15 nM | 22 nM | COc1cn2ncc(-c3nc(N[C@@H]4CCCNC4)ncc3F)c2nc1C1CC1 [Compound 14a, (R)-4-(5-cyclopropyl-6-methoxypyrazolo[1,5-a]pyrimidin-3-yl)-5-fluoro-N-(piperidin-3-yl)pyrimidin-2-amine] |
| 22 nM | 41 nM | – | – | COc1cn2ncc(-c3nc(N[C@H]4CNCC[C@@H]4F)c(C#N)cc3F)c2nc1C(C)(C)O [Compound 10, 5-fluoro-2-(((3S,4S)-4-fluoropiperidin-3-yl)amino)-6-(5-(2-hydroxypropan-2-yl)-6-methoxypyrazolo[1,5-a]pyrimidin-3-yl)nicotinonitrile] |
| 128 nM | 101 nM | – | – | COc1cn2ncc(-c3nc(N[C@@H]4CCCNC4)c(F)cc3F)c2nc1C(C)(C)O [Compound 11, (R)-2-(3-(3,5-difluoro-6-(piperidin-3-ylamino)pyridin-2-yl)-6-methoxypyrazolo[1,5-a]pyrimidin-5-yl)propan-2-ol] |
| – | – | 5 nM | 8 nM | COc1cn2ncc(-c3nc(N[C@H]4CNCC[C@@H]4F)ncc3F)c2nc1C1CC1 [Compound 15a, 4-(5-cyclopropyl-6-methoxypyrazolo[1,5-a]pyrimidin-3-yl)-5-fluoro-N-((3S,4S)-4-fluoropiperidin-3-yl)pyrimidin-2-amine] |
| 61 nM | 97 nM | – | – | COc1cn2ncc(-c3cccc(N[C@H]4CNC[C@@H]4F)n3)c2nc1C1CC1 [Compound 19, 6-(5-cyclopropyl-6-methoxypyrazolo[1,5-a]pyrimidin-3-yl)-N-((3S,4S)-4-fluoropyrrolidin-3-yl)pyridin-2-amine] |
| – | – | 331 nM | 244 nM | COc1cn2ncc(-c3cncc(N[C@@H]4CCCNC4)n3)c2nc1C1CC1 [Compound 11a, (R)-6-(5-cyclopropyl-6-methoxypyrazolo[1,5-a]pyrimidin-3-yl)-N-(piperidin-3-yl)pyrazin-2-amine] |
| 71 nM | 94 nM | – | – | COc1cn2ncc(-c3nc(N[C@@H]4CCCNC4)ccc3F)c2nc1C1CC1 [Compound 2, (R)-6-(5-cyclopropyl-6-methoxypyrazolo[1,5-a]pyrimidin-3-yl)-5-fluoro-N-(piperidin-3-yl)pyridin-2-amine] |
| – | – | 72 nM | 46 nM | COc1cn2ncc(-c3ccnc(N[C@H]4CNC[C@@H]4F)n3)c2nc1C1CC1 [Compound 8a, 4-(5-cyclopropyl-6-methoxypyrazolo[1,5-a]pyrimidin-3-yl)-N-((3S,4S)-4-fluoropyrrolidin-3-yl)pyrimidin-2-amine] |
| – | – | 83 nM | 55 nM | COc1cn2ncc(-c3cncc(N[C@H]4CNCC[C@@H]4F)n3)c2nc1C1CC1 [Compound 12a, 6-(5-cyclopropyl-6-methoxypyrazolo[1,5-a]pyrimidin-3-yl)-N-((3S,4S)-4-fluoropiperidin-3-yl)pyrazin-2-amine] |
| – | – | 57 nM | 52 nM | COc1cn2ncc(-c3nc(N[C@H]4CNCC[C@@H]4F)ncc3F)c2nc1C(C)(C)O [Compound 6a, 2-(3-(5-fluoro-2-(((3S,4S)-4-fluoropiperidin-3-yl)amino)pyrimidin-4-yl)-6-methoxypyrazolo[1,5-a]pyrimidin-5-yl)propan-2-ol] |
| 362 nM | 342 nM | – | – | COc1cn2ncc(-c3cccc(N[C@H]4CNCC[C@@H]4F)n3)c2nc1C1CC1 [Compound 21, 6-(5-cyclopropyl-6-methoxypyrazolo[1,5-a]pyrimidin-3-yl)-N-((3S,4S)-4-fluoropiperidin-3-yl)pyridin-2-amine] |
| 441 nM | 646 nM | – | – | COc1cn2ncc(-c3cccc(N[C@@H]4CCCNC4)n3)c2nc1C1CC1 [Compound 20, (R)-6-(5-cyclopropyl-6-methoxypyrazolo[1,5-a]pyrimidin-3-yl)-N-(piperidin-3-yl)pyridin-2-amine] |
| 22 nM | 26 nM | – | – | COc1cn2ncc(-c3nc(N[C@H]4CNCC[C@@H]4F)ccc3F)c2nc1C1CC1 [Compound 3, 6-(5-cyclopropyl-6-methoxypyrazolo[1,5-a]pyrimidin-3-yl)-5-fluoro-N-((3S,4S)-4-fluoropiperidin-3-yl)pyridin-2-amine] |
| 300 nM | 219 nM | – | – | COc1cn2ncc(-c3ccc(F)c(N[C@H]4CNCC[C@@H]4F)n3)c2nc1C1CC1 [Compound 6, 6-(5-cyclopropyl-6-methoxypyrazolo[1,5-a]pyrimidin-3-yl)-3-fluoro-N-((3S,4S)-4-fluoropiperidin-3-yl)pyridin-2-amine] |
| – | – | 19 nM | 27 nM | COc1cn2ncc(-c3nc(N[C@H]4CNC[C@@H]4F)ncc3F)c2nc1C1CC1 [Compound 13a, 4-(5-cyclopropyl-6-methoxypyrazolo[1,5-a]pyrimidin-3-yl)-5-fluoro-N-((3S,4S)-4-fluoropyrrolidin-3-yl)pyrimidin-2-amine] |
| 39 nM | 88 nM | – | – | COc1cn2ncc(-c3nc(N[C@@H]4CCCNC4)c(C#N)cc3F)c2nc1C(C)(C)O [Compound 9, (R)-5-fluoro-6-(5-(2-hydroxypropan-2-yl)-6-methoxypyrazolo[1,5-a]pyrimidin-3-yl)-2-(piperidin-3-ylamino)nicotinonitrile] |
| – | – | 55 nM | 50 nM | COc1cn2ncc(-c3ccnc(N[C@H]4CNCC[C@@H]4F)n3)c2nc1C1CC1 [Compound 7a, 4-(5-cyclopropyl-6-methoxypyrazolo[1,5-a]pyrimidin-3-yl)-N-((3S,4S)-4-fluoropiperidin-3-yl)pyrimidin-2-amine] |
